The record followed here is patent US9988381B2, “Five-member-heterocycle fused pyridine compounds, method of producing the same, and use thereof” (SHANGHAI INSTITUTE OF MATERIA MEDICA, CHINESE ACADEMY OF …, priority 2013, dated 2018).

Like-named read-outs stand apart in the source and are kept apart here.

The target of assay [1] is T1, c-Met kinase domain recombinant protein (Homo sapiens, UniProt P08581).
T1 construct: 50 μL diluted solution of c-Met kinase domain recombinant protein in reaction buffer was added to initiate the reaction
T1 sequence (P08581 1078-1345 limits assumed): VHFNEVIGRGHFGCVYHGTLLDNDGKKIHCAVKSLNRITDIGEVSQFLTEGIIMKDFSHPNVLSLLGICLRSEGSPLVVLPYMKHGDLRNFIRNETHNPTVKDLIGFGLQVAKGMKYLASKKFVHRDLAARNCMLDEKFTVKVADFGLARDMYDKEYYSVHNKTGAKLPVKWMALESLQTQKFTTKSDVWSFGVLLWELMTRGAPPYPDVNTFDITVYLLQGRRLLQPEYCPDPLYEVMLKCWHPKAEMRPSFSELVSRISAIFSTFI
Nature of the assay: biochemical. As to conditions: read-out: Inhibition rate at 10 μM (%). In short, it runs like this: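 ELISA on plates coated with Poly(Glu,Tyr)4:1 (20 μg/mL), kinase reaction with c-Met kinase domain and ATP in HEPES pH 7.4 buffer with MgCl2, MnCl2, Na3VO4 and DTT, 1 h at 37 °C. Phosphotyrosine detected with PY99 and HRP secondary antibody, read at 490 nm; inhibition rate calculated against ATP-free control.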

For assay [2], the target named is T1, c-Met kinase domain recombinant protein. As to the kind of experiment: biochemical. The settings on record: for inhibition at 0.1 µM: read-out: Average inhibition rate at 0.1 μM (%); for inhibition at 1 µM: read-out: Average inhibition rate at 1 μM (%). The essentials: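 ELISA on plates coated with Poly(Glu,Tyr)4:1 (20 μg/mL coating solution). Recombinant c-Met kinase domain reacted with 5 μM ATP in HEPES pH 7.4 with Mg/Mn, vanadate and DTT for 1 hour at 37° C. Phosphotyrosine was detected with PY99 and HRP secondary antibody, read at 490 nm, and IC50 was taken from a four-parameter fit.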

A further assay has as its system EBC-1 cell. As to the kind of experiment: Test III: growth inhibition of non-small cell carcinoma EBC-1 cell (SRB). It counts as cell-based. The settings on record: Homo sapiens; for inhibition at 0.2 µM: read-out: Cell proliferation inhibition rate at 200 nM (%); for inhibition at 1 µM: read-out: Cell proliferation inhibition rate at 1 μM (%). The procedure: Assays on the growth inhibition of the compounds against gastric tumor cell MKN45, non-small cell carcinoma EBC-1 cell (both are MET persistent activated cell lines due to MET gene amplification, and are Met dependent tumor cell lines, MKN45 cell was purchased from JCRB, Japan, EBC-1 cell was purchased from ATCC, USA) were detected using sulforhodamine B (SRB) staining. […] After incubation with compound for 72 hours, the incubation was terminated, adherent cells were retained and medium was discarded, 10% (w/v) trichloroacetic acid (100 μL pre well) was added, the cells were fixed at 4° C. for 1 hour, then rinsed with distilled water for 5 times, after dried at room temperature, SRB solution (4 mg/mL, dissolved in 1% glacial acetic acid) was added at 100 μL per well, incubated and stained at room temperature for 15 minutes, then rinsed with 1% glacial acetic acid for 5 times to remove any unbound SRB, dried at room temperature, then 10 mM Tris solution was added at 100 μL per well, the optical density (OD) value at 515 nm was measured using VERSMax microplate reader.
Experiments were conducted in duplicates. IC50 value was calculated by fitting the data for a four parameter fit using inhibition curve, the results are shown below in Table 2.

Consider `CNC(=O)c1ccc(-c2ccc3ncc(S(=O)(=O)n4ncc5ncc(-c6cnn(C)c6)cc54)n3c2)cc1F` [Example 101, 1-{(6-(3-fluoro-4-methylaminocarbonylphenyl)-imidazo[1,2-a]pyridine)-3-sulfonyl}-6-[(1-methyl)-4-pyrazolyl]-1-H-pyrazolo[4,3-b]pyridine], for which the inhibition at 10 µM in assay [1] is greater than 64.5%. In assay [2], the IC50 (as a rule, the concentration at which inhibition is half-maximal) amounted to 0.3 ± 0.1 nM; the inhibition at 0.1 µM amounted to 100%; the inhibition at 1 µM was determined as 100%.

`CC(C)c1c(-c2cnn(C)c2)cnc2cnn(S(=O)(=O)c3cnc4ccc(-c5cnn(C)c5)cn34)c12` [Example 103, 1-{(6-[(1-methyl)-4-pyrazolyl]-imidazo[1,2-a]pyridine)-3-sulfonyl}-6-[(1-methyl)-4-pyrazolyl]-7-isopropyl-1-H-pyrazolo[4,3-b]pyridine]: in assay [2], the IC50 came to 3.2 ± 0.3 nM, the inhibition at 0.1 µM came out at 98.5% and the inhibition at 1 µM was 101%. In the assay on EBC-1 cell (EBC-1, 72 h), the inhibition at 0.2 µM was found to be 80.9% and the inhibition at 1 µM stood at 92.7%.

Take `O=S(=O)(c1cnc2ccc(-c3cn[nH]c3)cn12)n1ncc2ncc(-c3cn[nH]c3)cc21` [Example 104, 1-{[6-(4-pyrazolyl)-imidazo[1,2-a]pyridine]-3-sulfonyl}-6-(4-pyrazolyl)-1-H-pyrazolo[4,3-b]pyridine]: in assay [2], the IC50 was 2.1 ± 0.6 nM, the inhibition at 0.1 µM is 99.8% and the inhibition at 1 µM is 100%. Moreover, in the assay on EBC-1 cell (EBC-1, 72 h), the inhibition at 0.2 µM stood at 85.7% and the inhibition at 1 µM was 89.2%.

For `Cn1cc(-c2cnc3cnn(S(=O)(=O)c4cnc5ccc(-c6cn[nH]c6)cn45)c3c2)cn1` [Example 105, 1-{[6-(4-pyrazolyl)-imidazo[1,2-a]pyridine]-3-sulfonyl}-6-[(1-methyl)-4-pyrazolyl]-1-H-pyrazolo[4,3-b]pyridine], in assay [2], the IC50 amounted to 2.6 ± 0.4 nM, the inhibition at 0.1 µM was determined as 97.8% and the inhibition at 1 µM was 100%. Moreover, in the assay on EBC-1 cell (EBC-1, 72 h), the inhibition at 0.2 µM amounted to 77.7% and the inhibition at 1 µM turned out to be 91.5%.

Turning to `Cn1cc(-c2ccc3ncc(S(=O)(=O)n4ncc5ncc(-c6cn[nH]c6)cc54)n3c2)cn1` [Example 106, 1-{(6-[(1-methyl)-4-pyrazolyl]-imidazo[1,2-a]pyridine)-3-sulfonyl}-6-(4-pyrazolyl)-1-H-pyrazolo[4,3-b]pyridine], in assay [2], the IC50 was 1.9 ± 0.1 nM, the inhibition at 0.1 µM amounted to 104% and the inhibition at 1 µM stood at 101%. Also, in the assay with EBC-1 cell (EBC-1, 72 h), the inhibition at 0.2 µM is 37% and the inhibition at 1 µM turned out to be 85.7%.

In the case of `Cn1cc(-c2cnc3[nH]cc(S(=O)(=O)n4ncc5cccnc54)c3c2)cn1` [Example 107, 1-{(5-[(1-methyl)-4-pyrazolyl])-1-H-pyrrolo [2,3-b]pyridine-3-sulfonyl}-1-H-pyrazolo[3,4-b]pyridine], in assay [2], the inhibition at 0.1 µM was determined as 29.1% and the inhibition at 1 µM came to 88.2%. Also, the inhibition at 0.2 µM in the assay on EBC-1 cell (EBC-1, 200 nM, 72 hours) was 18.9%. In addition, the inhibition at 1 µM in the assay with EBC-1 cell (EBC-1, 1 μM, 72 hours) was found to be 18.1%.

For the compound `CCOc1cccc(-c2cnc3cnn(S(=O)(=O)c4cnc5ccc([N+](=O)[O-])cn45)c3c2)c1` [Example 113, 1-[(6-nitro-imidazo[1,2-a]pyridine)-3-sulfonyl]-6-(3-ethoxyphenyl)-1-H-pyrazolo[4,3-b]pyridine], in assay [2], the inhibition at 0.1 µM amounted to 48.6% and the inhibition at 1 µM turned out to be 97.7%. Moreover, in the assay with EBC-1 cell (EBC-1, 200 nM, 72 hours), the inhibition at 0.2 µM was 7.9%. The inhibition at 1 µM in the assay on EBC-1 cell (EBC-1, 1 μM, 72 hours) came to 9%.

Take `COc1ccc2ncc(S(=O)(=O)n3ncc4ncc(-c5cnn(C)c5)cc43)n2c1` [Example 121, 1-[(6-methoxy-imidazo[1,2-a]pyridine)-3-sulfonyl]-6-[(1-methyl)-4-pyrazolyl]-1-H-pyrazolo[4,3-b]pyridine]: in assay [2], the IC50 came out at 9 ± 1 nM, the inhibition at 0.1 µM was 99% and the inhibition at 1 µM was found to be 101%. In the assay on EBC-1 cell (EBC-1, 72 h), the inhibition at 0.2 µM is 91.6% and the inhibition at 1 µM was found to be 92.5%.

As to `COc1ccc2ncc(S(=O)(=O)n3ncc4ncc(-c5ccc(N6CCOCC6)cc5)cc43)n2c1` [Example 124, 1-[(6-methoxy-imidazo[1,2-a]pyridine)-3-sulfonyl]-6-(4-morpholinylphenyl)-1-H-pyrazolo[4,3-b]pyridine], in assay [2], the concentration for half-maximal inhibition (IC50) amounted to 4.7 ± 1 nM, the inhibition at 0.1 µM was determined as 94.4% and the inhibition at 1 µM amounted to 99.7%. Besides, in the assay with EBC-1 cell (EBC-1, 72 h), the inhibition at 0.2 µM came to 43.1% and the inhibition at 1 µM was 92.7%.

Take `COc1ccc(-c2cnc3cnn(S(=O)(=O)c4cnc5ccc(O)cn45)c3c2)cc1` [Example 126, 1-[(6-hydroxy-imidazo[1,2-a]pyridine)-3-sulfonyl]-6-(4-methoxyphenyl)-1-H-pyrazolo[4,3-b]pyridine]: in assay [2], the IC50 came to 7.3 ± 1.1 nM, the inhibition at 0.1 µM amounted to 100% and the inhibition at 1 µM came to 100%. Further, in the assay on EBC-1 cell (EBC-1, 72 h), the inhibition at 0.2 µM came to 35.1% and the inhibition at 1 µM amounted to 87%.

Consider `CC(C)C(=O)Oc1ccc2ncc(S(=O)(=O)n3ncc4ncc(-c5cnn(C)c5)cc43)n2c1` [Example 128, 1-[(6-isobutyryloxy-imidazo[1,2-a]pyridine)-3-sulfonyl]-6-[(1-methyl)-4-pyrazolyl]-1-H-pyrazolo[4,3-b]pyridine], for which, in assay [2], the IC50 is 2 ± 0.2 nM, the inhibition at 0.1 µM stood at 99.4% and the inhibition at 1 µM stood at 99.3%. For the same compound, in the assay on EBC-1 cell (EBC-1, 72 h), the inhibition at 0.2 µM worked out at 80.6% and the inhibition at 1 µM worked out at 87%.

In the case of `Cn1cc(-c2cnc3cnn(S(=O)(=O)c4cnc5ccc(OC(=O)c6ccco6)cn45)c3c2)cn1` [Example 129, 1-[(6-furan-2-acyloxy-imidazo[1,2-a]pyridine)-3-sulfonyl]-6-[(1-methyl)-4-pyrazolyl]-1-H-pyrazolo[4,3-b]pyridine], in assay [2], the IC50 came out at 2.7 ± 0.5 nM, the inhibition at 0.1 µM was determined as 99.6% and the inhibition at 1 µM came out at 101%. In addition, in the assay on EBC-1 cell (EBC-1, 72 h), the inhibition at 0.2 µM came to 79% and the inhibition at 1 µM was determined as 86.6%.

For `CCC(=O)Nc1cnc2cnn(S(=O)(=O)c3cnc4ccc(Br)cn34)c2c1` [Example 132, 1-[(6-bromo-imidazo[1,2-a]pyridine)-3-sulfonyl]-6-propionamido-1-H-pyrazolo[4,3-b]pyridine], in assay [2], the inhibition at 0.1 µM was determined as 92.1% and the inhibition at 1 µM is 100%. In addition, the inhibition at 0.2 µM in the assay with EBC-1 cell (EBC-1, 200 nM, 72 hours) was 48.2%. The inhibition at 1 µM in the assay on EBC-1 cell (EBC-1, 1 μM, 72 hours) was found to be 85.4%.

On to `Cn1cc(-c2ccc3ncc(S(=O)(=O)n4ncc5ncc(NC(=O)c6ccccc6)cc54)n3c2)cn1` [Example 133, 1-{(6-[(1-methyl)-4-pyrazolyl]-imidazo[1,2a]pyridine)-3-sulfonyl}-6-benzamido-1-H-pyrazolo[4,3-b]pyridine], for which, in assay [2], the IC50 is 2.6 ± 0.2 nM, the inhibition at 0.1 µM came to 100% and the inhibition at 1 µM amounted to 100%. In the assay with EBC-1 cell (EBC-1, 72 h), the inhibition at 0.2 µM was determined as 86.4% and the inhibition at 1 µM was 87.8%.

In the case of `Cn1cc(-c2ccc3ncc(S(=O)(=O)n4ncc5ncc(C6=CCN(C7CCCC7)CC6)cc54)n3c2)cn1` [Example 135, 1-{(6-[(1-methyl)-4-pyrazolyl]-imidazo[1,2-a]pyridine)-3-sulfonyl}-6-[(1-cyclopentyl)-4-(1,2,3,6-tetrahydropyridinyl)]-1-H-pyrazolo[4,3-b]pyridine], in assay [2], the IC50 was found to be 2.6 ± 0.2 nM, the inhibition at 0.1 µM turned out to be 87.4% and the inhibition at 1 µM worked out at 88.2%. Also, in the assay with EBC-1 cell (EBC-1, 72 h), the inhibition at 0.2 µM is 89.4% and the inhibition at 1 µM is 91.4%.
